From PMC3355094 (PLoS Pathogens, 2012)
Values joined by “and” are separate entries in the source; they are usually repeats but may differ in a detail not shown here. Equal values may be shown once. Read-outs that look alike come from different tables or passages of the source.

Legend:
[1] = tested on: CCL1; assay: Glycan array analysis of CCL1 (CFG mammalian glycan array V4.2); type: binding, Coprinopsis cinerea; conditions: Alexa Fluor 488 labeled CCL1 200 µg/ml, array V4.2, average of triplicates
Procedure: (§1) Purified CCL1 and CCL2 were fluorescently labeled with Alexa Fluor 488 (Invitrogen) according to the manufacturer's protocol and used (at a final concentration of 200 µg/ml) to probe versions 4.2 and 3.1, respectively, of the mammalian glycan array offered by Core H of the Consortium for Functional Glycomics (CFG).

[2] = tested on: CCL2; assay: Glycan array analysis of CCL2 (CFG mammalian glycan array V3.1); type: binding, Coprinopsis cinerea; conditions: for RFU (relative fluorescence units): Alexa Fluor 488 labeled CCL2 200 µg/ml, array V3.1, average of triplicates
Procedure: as §1

[3] = target: Cholera toxin B subunit (CTB); type: binding; conditions: read-out: KD [μmol]; cited from earlier work
[4] = target: RSL; type: binding; conditions: read-out: KD [μmol]; cited from earlier work
[5] = target: MOA; assay: Literature thermodynamic binding data of lectin-carbohydrate interactions compiled in Table S6 for comparison; conditions not given; parameters: method as in values quoted from other papers; conditions: read-out: KD [μmol]; cited from earlier work
[6] = ligand Glc1,3Man1,2Man1,2Man; ref 2 of Table S6 (Kozlov et al. 2010); cited from earlier work
[7] = parameters: method as in ref 3 of Table S6 (Gupta et al. 2008); conditions: ligand Glc1,3Man1,2ManOMe; ref 3 of Table S6 (Gupta et al. 2008); cited from earlier work
[8] = target: T1, CCL2 wild-type (Coprinopsis cinerea, UniProt B3GA02); type: binding
[9] = parameters: method as in ref 5 of Table S6 (Turnbull et al. 2004); conditions: ligand GM1os; ref 5 of Table S6 (Turnbull et al. 2004); cited from earlier work
[10] = target: T2, CCL2 (Wild type) (Coprinopsis cinerea, UniProt B3GA02); assay: biochemical; type: binding
T2 construct: recombinant from E. coli, eight N-terminal His-residues (His8), monomer

[11] = target: Calreticulin; assay: Literature thermodynamic binding data of lectin-carbohydrate interactions compiled in Table S6 for comparison; conditions not given; parameters: method as in values quoted from other papers; conditions: read-out: KD [μmol]; cited from earlier work
[12] = target: ConA; assay: as above; parameters: method as in values quoted from other papers; conditions: read-out: KD [μmol]; cited from earlier work
[13] = target: Jacalin; assay: as above; parameters: method as in values quoted from other papers; conditions: read-out: KD [μmol]; cited from earlier work
[14] = target: T1, CCL2 wild-type; type: binding; remark: listed apart in the source
[15] = target: WBA II; type: binding; conditions: read-out: KD [μmol]; cited from earlier work
[16] = carbohydrate titrated to CCL2 wild-type

T1 sequence (B3GA02 2-142 limits assumed): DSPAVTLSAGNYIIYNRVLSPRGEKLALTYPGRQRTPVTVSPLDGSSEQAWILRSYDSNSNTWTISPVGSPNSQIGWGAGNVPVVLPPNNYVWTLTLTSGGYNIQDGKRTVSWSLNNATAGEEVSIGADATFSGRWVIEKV
T2 sequence (B3GA02 2-142): as the sequence (B3GA02 2-142 limits assumed) above

| Compound | RFU (relative fluorescence units) [1] [RFU] | RFU (relative fluorescence units) [2] | other results |
| --- | --- | --- | --- |
| Neu5Ac2-6Gal1-4GlcNAc1-2Man1-3(Neu5Ac2-6Gal1-4GlcNAc1-2Man1-6)Man1-4GlcNAc1-4GlcNAc-Sp12 | 122 | 183.9 RFU |  |
| [3OSO3]Gal1-4GlcNAc-Sp8 | 110 | 110.8 RFU |  |
| [4OSO3][6OSO3]Gal1-4GlcNAc-Sp0 | 5 | 222.7 RFU |  |
| Man1-3(Man1-6)Man1-4GlcNAc1-4GlcNAc-Sp13 | 116 | 525.3 RFU |  |
| CC(=O)N[C@H]1[C@H](O[C@@H]2[C@H](O[C@]3(C(=O)O)C[C@H](O)[C@@H](NC(C)=O)[C@H]([C@H](O)[C@H](O)CO)O3)[C@@H](O)[C@H](O[C@H]3[C@H](O)[C@@H](O)C(O)O[C@@H]3CO)O[C@@H]2CO)O[C@H](CO)[C@H](O)[C@@H]1O[C@@H]1O[C@H](CO)[C@H](O)[C@H](O)[C@H]1O (stereo partly shown) [GM1os, GM1 ganglioside oligosaccharide] |  |  | Kd [3]: 0.043 µM |
| [4OSO3]Gal1-4GlcNAc-Sp8 | 17 | 350.4 RFU |  |
| C[C@@H]1O[C@@H](O[C@H]2[C@H](O[C@H]3[C@H](O)[C@@H](O)C(O)O[C@@H]3CO)O[C@H](CO)[C@H](O)[C@@H]2O)[C@@H](O)[C@H](O)[C@@H]1O (stereo partly shown) [2-Fucosyllactose, 2'-fucosyllactose] |  |  | Kd [4]: 0.25 µM |
| [6OSO3]Gal1-4[6OSO3]Glc-Sp8 | 20 | 298.1 RFU |  |
| [3OSO3]Gal1-4Glc-Sp8 | 29 | 152.3 RFU |  |
| CO[C@@H]1O[C@@H](C)[C@@H](O)[C@@H](O)[C@@H]1O [FucOMe, methyl fucopyranoside] |  |  | Kd [4]: 0.73 µM |
| CC(=O)N[C@H]1C(O)O[C@H](CO)[C@@H](O[C@@H]2O[C@H](CO)[C@H](O)[C@H](O[C@H]3O[C@H](CO)[C@H](O)[C@H](O)[C@H]3O)[C@H]2O)[C@@H]1O (stereo partly shown) [Gal1,3Gal1,4GlcNAc, Galα1,3Galβ1,4GlcNAc] |  |  | Kd [5]: 42.3 µM |
| 6-H2PO3Man-Sp8 | 3 | 118.9 RFU |  |
| Calreticulin |  |  | –TΔS [6]: 3.75 kcal/mol; –ΔH [6]: 12 kcal/mol; –TΔS [7]: -0.813 kcal/mol; –ΔH [7]: 7.15 kcal/mol |
| [3OSO3]Gal1-4[6OSO3]GlcNAc-Sp8 | 333 | 101.0 RFU |  |
| GlcNAc1-3(GlcNAc1-4)(GlcNAc1-6)GlcNAc-Sp8 | 264 | 103.1 RFU |  |
| CC(=O)NC1C(OC2C(CO)OC(O)C(O)C2O)OC(CO)C(OC2OC(CO)C(O)C(O)C2O)C1OC1OC(C)C(O)C(O)C1O (stereo not shown) [Galβ1,4[Fucα1,3]GlcNAcβ1,4Gal] |  |  | NMR titration [8]: large chemical shift deviations, slow to intermediate exchange |
| [3OSO3]Gal1-3GalNAc-Sp8 | 118 | 216.8 RFU |  |
| Cholera toxin B subunit (CTB): cholera-toxin B subdomain |  |  | –TΔS [9]: 7.36 kcal/mol; –ΔH [9]: 17.3 kcal/mol |
| GlcNAc1-2Man1-3(GlcNAc1-2Man1-6)Man1-4GlcNAc1-4GlcNAc-Sp13 | 68 | 674.3 RFU |  |
| CO[C@@H]1O[C@H](CO)[C@@H](O[C@@H]2O[C@H](CO)[C@H](O)[C@H](O)[C@H]2O)[C@H](O[C@@H]2O[C@@H](C)[C@@H](O)[C@@H](O)[C@@H]2O)[C@H]1NC(C)=O [Galβ1,4[Fucα1,3]GlcNAcβ1-OMe, Lewis X trisaccharide methyl glycoside] |  |  | Kd [10]: 456 µM |
| CO[C@H]1O[C@H](CO)[C@@H](O)[C@H](O)[C@@H]1O[C@H]1O[C@H](CO)[C@@H](O)[C@H](O[C@H]2O[C@H](CO)[C@@H](O)[C@H](O)[C@H]2O)[C@@H]1O [Glc1,3Man1,2ManOMe, Glcα1,3Manα1,2Manα-OMe (methyl glycoside)] |  |  | Kd [11]: 1.8 µM |

| Compound | RFU (relative fluorescence units) [1] [RFU] | RFU (relative fluorescence units) [2] | other results |
| --- | --- | --- | --- |
| CO[C@@H]1O[C@H](CO)[C@@H](O)[C@H](O[C@@H]2O[C@@H](C)[C@@H](O)[C@@H](O)[C@@H]2O)[C@H]1NC(C)=O [Fucα1,3GlcNAc-OMe, Fucα1,3GlcNAc methyl glycoside] |  |  | Kd [10]: > 500 µM |
| [6OSO3]GlcNAc–Sp8 |  | 141.7 RFU |  |
| CO[C@H]1O[C@H](CO[C@H]2O[C@H](CO)[C@@H](O)[C@H](O)[C@@H]2O)[C@@H](O)[C@H](O[C@H]2O[C@H](CO)[C@@H](O)[C@H](O)[C@@H]2O)[C@@H]1O [Man1,6[Man1,3]ManOMe, Manα1,6[Manα1,3]Man methyl glycoside] |  |  | Kd [12]: 2 µM |
| CO[C@H]1O[C@H](CO)[C@H](O)[C@H](O)[C@H]1O [GalOMe, methyl galactopyranoside] |  |  | Kd [13]: 58 µM |
| NeuAc2-3[6OSO3]Gal1-4GlcNAc–Sp8 |  | 40316.6 RFU |  |
| CO[C@@H]1O[C@H](CO)[C@@H](O)[C@H](O[C@@H]2O[C@@H](C)[C@@H](O)[C@@H](O)[C@@H]2O)[C@H]1NC(C)=O [Fucα1,3GlcNAc-OMe] |  |  | NMR titration [8]: no binding |
| Neu5Acα2,3Galβ1,4Glc |  |  | NMR titration [8, 16]: no binding |
| -GalNAc–Sp8 |  | 151.8 RFU and 273.6 RFU |  |
| [3OSO3]Gal–Sp8 |  | 75.5 RFU |  |
| CC(=O)N[C@H]1[C@H](O[C@H]2[C@H](O[C@@H]3O[C@@H](C)[C@@H](O)[C@@H](O)[C@@H]3O)[C@@H](NC(C)=O)[C@H](OCCCCCC(=O)O)O[C@@H]2CO)O[C@H](CO)[C@@H](O)[C@@H]1O [GlcNAcβ1,4[Fucα1,3]GlcNAcβ1-sp, GlcNAcβ1,4[Fucα1,3]GlcNAcβ-O(CH2)5COONa] |  |  | NMR titration [8, 16]: large chemical shift deviations, slow exchange; ΔH [14]: -11.9 kcal/mol; −TΔS [14]: 3.9 kcal/mol |
| CC(=O)N[C@H]1C(O)O[C@H](CO)[C@@H](O)[C@@H]1O[C@@H]1O[C@@H](C)[C@@H](O)[C@@H](O)[C@@H]1O (stereo partly shown) [Fucα1,3GlcNAc] |  |  | binding on glycan array (in words) ([2]; fluorescently labeled CCL2 200 µg/ml, array V3.1): very low fluorescence |
| [3OSO3][6OSO3]Gal1-4[6OSO3]GlcNAc-Sp0 | 3 | 367.7 RFU |  |
| [3OSO3][6OSO3]Gal1-4GlcNAc-Sp0 | 25 | 193.4 RFU |  |
| OC[C@H]1O[C@H](O[C@@H]2[C@H](O)[C@@H](O[C@@H]3[C@@H](O[C@@H]4C(O)O[C@H](CO)[C@@H](O)[C@@H]4O)O[C@H](CO)[C@@H](O)[C@@H]3O)O[C@H](CO)[C@H]2O)[C@H](O)[C@@H](O)[C@@H]1O (stereo partly shown) [Glcα1,3Manα1,2Manα1,2Man, Glcα1,3Manα1,2Manα1,2Man tetrasaccharide] |  |  | Kd [11]: 0.77 µM |
| C[C@@H]1O[C@@H](OCCCN)[C@@H](O)[C@H](O)[C@@H]1O [-L-Fuc–Sp8] |  | 416.6 RFU |  |
| CO[C@@H]1O[C@H](CO)[C@@H](O[C@@H]2O[C@H](CO)[C@H](O)[C@H](O)[C@H]2O)[C@H](O[C@@H]2O[C@@H](C)[C@@H](O)[C@@H](O)[C@@H]2O)[C@H]1NC(C)=O [Galβ1,4[Fucα1,3]GlcNAcβ1-OMe] |  |  | drop in affinity [14]: ~300 fold |
| -L-Fuc–Sp9 |  | 136.8 RFU |  |
| [3OSO3]Gal1-3GlcNAc–Sp8 |  | 403.9 RFU |  |
| CO[C@@H]1O[C@H](CO)[C@@H](O[C@@H]2O[C@H](CO)[C@H](O)[C@H](O)[C@H]2O[C@@H]2O[C@@H](C)[C@@H](O)[C@@H](O)[C@@H]2O)[C@H](O)[C@H]1NC(C)=O [Fuc1,2Gal1,4GlcNAcOMe, Fucα1,2Galβ1,4GlcNAc methyl glycoside] |  |  | Kd [15]: 3.2 µM |
| C[C@@H]1O[C@@H](O[C@H]2C(O)O[C@H](CO)[C@H](O)[C@@H]2O[C@H]2O[C@H](CO)[C@H](O)[C@H](O)[C@H]2O)[C@@H](O)[C@H](O)[C@@H]1O (stereo partly shown) [Galα1,3[Fucα1,2]Gal, blood group B trisaccharide] |  |  | Kd [5]: 36 µM |
